Measured values: article PMC3517777, “Phase I study of TP300 in patients with advanced solid tumors with pharmacokinetic, pharmacogenetic and pharmacodynamic analyses” (BMC Cancer, 2012)

Legend:
neutrophil count = experiment: Exposure versus fall in nadir neutrophil count, sigmoid Emax model; format: in vivo, human; conditions: 1-nadir/pre-observation neutrophils in cycle 1 vs total AUC of TP3076 plus TP3011, sigmoid Emax fit
Description: Pharmacokinetic parameters derived from plasma concentration-time data of TP3076 or TP3011 by non-compartmental methods using WinNonlin (version 5.1; Pharsight Corp), included maximal plasma concentration (Cmax) and time of Cmax (Tmax), apparent plasma elimination half-life (t1/2), and the area under the curve (AUC). The urinary excretion ratio (fe) of TP3076 and TP3011 was calculated from the urinary concentration and volume up to 48 hours after administration, and the administration dose. The linearity of Cmax and AUC was determined with linear regression, analysis of variance and power model analysis. The sum of the AUCs of TP3076 and TP3011 was plotted against percentage (%) fall in nadir neutrophil count to explore the relationship between exposure and myelosuppression as a measure of anti-proliferative effect and a sigmoid Emax model fitted to the data:
where γ is the Hill equation constant and EAUC50 is the AUC associated with 50% of the maximal effect.

[1] = test system: tumours over-expressing the breast cancer resistance protein [BCRP]; parameters: method as in PMID 19495753; conditions: unlike SN38; cited from earlier work
advanced solid tumors = experiment: Antitumour activity (RECIST) in Phase I patients; format: in vivo, human
Description: The MTD was the dose level below that at which ≥ 2 out of 3–6 patients experienced a DLT. Radiologic assessment of disease was performed every 2 cycles. Patients could remain on treatment if there was evidence of clinical benefit but were withdrawn from the study upon clinical or radiologic progression, unacceptable toxicity or withdrawal of consent.

In the case of `CCCCCN1C=Nc2cccc3nc4c(c1c23)Cn1c-4cc2c(c1=O)COC(=O)[C@@]2(CC)OC(=O)CN(C)C(=O)CN` [TP300, glycine,glycyl-N-methyl-,(9S)-9-ethyl-9,10,13,15-tetrahydro-10,13-dioxo-1-pentyl-1H,12H-pyrano[3'',4'':6′,7′]indolizino[2′,1′:5,6]pyrido[4,3,2-de]quinazolin-9-yl ester, hydro-chloride], the “EAUC50 (AUC associated with 50% of the maximal effect)” value (neutrophil count) is listed as 1.31, the “γ (Hill equation constant)” value (neutrophil count) is listed as 0.862 and the “activity in tumours over-expressing BCRP” value [1] is listed as “appears active”. For the same molecule, the “patients with stable disease as best response” value (advanced solid tumors; 1 each at 4, 8 and 12 mg/m^2 and 3 at 10 mg/m^2) was “six”, the “objective response as determined by RECIST” value (advanced solid tumors; 32 patients, 1-12 mg/m^2) was “no complete or partial responses” and the “duration of stable disease” value (advanced solid tumors; six patients with stable disease) was 1.5-5 months.
